pEC50: −log10 of the molar value. Read-outs that look alike come from different tables or passages of the source. Each block holds one compound with its values, some of them ahead of it.
Legend:
[1] = test system: Daudi cell line (AID positive); assay: Primary screening cell killing assay (Cell-Titer Glo, Day 7); type: cell-based; settings: Homo sapiens, 168 h; Daudi cells (AID positive), cell death on Day 7; read-out: AID+ EC50
Description: (§1) Primary screening was a phenotypic screen that utilized the synthetic lethal interaction between AID and RAD51 to identify compounds that were both potent and on target. AID expressing cells are dependent upon RAD51 for survival; inhibiting RAD51 in AID positive cells results in a cytotoxic effect.
The first step was to set up a cell killing assay in the Daudi cell line (AID positive). A 96 well u-bottom plate was prepared by writing the experiment number, plate number, date and initials in the top right corner of the plate lid. With a sterile 300 ml reservoir, and 25 ml serological pipette, evaporation buffer media was pipetted into reservoir in 25 ml increments. Using the liquid handler, 150 ul of evaporation buffer media was pipetted from reservoir into rows A and H, and Columns 1 and 12 of the 96 well u-bottom plate. Cell cultures were counted to obtain the density of cells per ml, and the culture viability. The cell density information was used to obtain 1,000,000 cells from culture using a 5 mL serological pipette into an epi tube. The cell density information from the culture was used to calculate the number of cells and volume of media needed for the assay to seed 1250 cells in 130 ul of media per available culture well in the 96 well u-bottom plate. Rows B through F were used for cells (50 wells in total), with row G left for an empty media control. The calculation was overestimated by 10 mL to account for the dead volume in the 300 ml reservoir. Once the media volume was calculated, the appropriate volume of media was pipetted in 25 mL increments into the 250 mL bottle using a 25 mL serological pipette. The 250 ml bottle was capped tightly, and placed into a 37° C. water bath for 2 minutes. While the culture media was warming, 10 mL of fresh media was pipetted from the 500 mL culture media bottle into a sterile 25 mL reservoir. Using the Eppendorf multichannel pipette, 130 ul of media was piptted from the 25 mL reservoir into row G of the 96 well u-bottom plate. Once the 250 mL bottle of media was warmed, the volume of culture needed was pipetted into the bottle, and mixed gently with a 25 mL serological pipette as to not create bubbles, and then the contents of the bottle were pipetted into a new 300 mL reservoir. Using the liquid handler, 130 ul of culture was pipetted from the 300 mL reservoir into rows B through F of the 96 well u-bottom plate. Once the culture was added, the plate was placed into a 37° C. incubator until the compound master plate was prepared for use.
Two 96 well u-bottom plates were prepared by writing the master plate name in the upper right corner of the plate lid. Labeling one DMSO master and the other Media Master. The compounds of interest were obtained from the laboratory freezer, and placed into a 25 well storage box with a lid, and set the box aside. The compounds were vortexed after thawing but before use. Using an automatic multichannel pipette, 20 ul of 100% DMSO was pipetted into wells B3-B11 through G3-G11 of the DMSO master plate. For each compound on the master plate, 50 ul of the compound were pipetted in the appropriate well of row 2 (reference plate map to determine appropriate well). A serial dilution was prepared beginning by aspirating 20 ul from row 2 and mixing with row 3, repeating until row 11 was reached. Using the liquid handler, 194 ul of Daudi media was dispensed into wells B2-B11 through G2-G11 of the Media master plate. Using the liquid handler, 6 ul from the DMSO master plate was aspirated and dispensed into the media master plate, mixing 100 ul twice.
Compounds from master plate were then added to the culture plate. The culture plates were removed from the incubator, and set inside the biosafety cabinet. Using a liquid handler, 20 ul from wells B2 to B11 through G2 to G11 of master plate were aspirated, and dispensed into wells B2 to B11 through G2 to G11 of culture plate. This set was continued with each culture plate. […]

[2] = test system: WI-38 cells (AID negative); assay: Primary screening cell killing assay repeated in AID negative cells; type: cell-based, Human; settings: WI-38 cells (AID negative), read-out: AID− EC50
Description: as §1
Percent cell death and EC50 values were calculated by comparing the cell viability of the compound treated wells to the non-treated wells. Normalized RLU values were obtained by subtracting the media well values from each of the wells in the same column, and then dividing that value by the DMSO treated cells values. The percent kill was then calculated by subtracting the normalized RLU value from 1 and multiplying by 100. The average normalized percent kill value and standard error of the mean was then calculated. The kill values were then inputted into Prism with the corresponding standard errors. In Prism a non-linear regression line was plotted with the data points using a semi-log scale, and the EC50 value was calculated.
The activity of the claimed compounds was measured in a variety of cell lines with different expression levels of activation induced cytidine deaminase (AICDA). The potency assay was repeated in all of the listed cell lines and the EC50 values recorded.

[3] = Bi-directional Caco-2 permeability; type: in vitro ADME; settings: human; for Papp A→B / Papp B→A: Caco-2, 37 C, up to 90 minutes; for Papp A→B: apical to basolateral, read-out: AB Papp (cm/sec × 10^6); for Papp B→A: basolateral to apical, read-out: BA Papp (cm/sec × 10^6); for efflux ratio: Caco-2 efflux ratio, read-out: BA/AB Ratio
Description: Bi-directional Caco-2 permeability was assayed. Caco-2 cells were seeded onto permeable polycarbonate supports and allowed to differentiate for about 3 weeks prior to being used in the assays. The cells were then exposed to the compounds from either the apical or basolateral sides and incubated at 37 C for up to 90 minutes under light agitation. Compound transport was then measured using LC/MS/MS analysis at 30, 60, and 90 minutes.

[4] = Caco-2, apical to basolateral, read-out: AB Recovery %
[5] = Caco-2, basolateral to apical, read-out: BA Recovery %

Compound: CC(C)OC(=O)N[C@@H]1CCC(c2ncc(-c3ccc(NC(=O)NCc4ccccc4)cc3S(=O)(=O)NC(C)(C)C)s2)OC1 (mixture of isomers) [Compound 59]
- pEC50 [1]: ≥ 7.00
- pEC50 ([2]; Homo sapiens): < 6.00

Compound: CC(C)OC(=O)Nc1ccc(-c2cnc(C3CC[C@@H](NC(=O)OC(C)C)CO3)s2)c(S(=O)(=O)NC(C)(C)C)c1 (mixture of isomers) [Compound 60]
- pEC50 [1]: ≥ 6.00

Compound: CC(C)OC(=O)Nc1ccc(-c2cnc([C@@H]3CC[C@@H](NC(=O)OC(C)C)CN3)s2)c(S(=O)(=O)NC(C)(C)C)c1 (relative stereo) [Compound 63]
- pEC50 [1]: ≥ 6.00

- recovery at 90 min [3, 4]: 55.9%
- recovery at 90 min [3, 5]: 92%
- Papp A→B [3]: 1.7 ×10⁻⁶ cm/s
- Papp B→A [3]: 2.1 ×10⁻⁶ cm/s
- efflux ratio [3]: 1.2
Compound: CC(C)OC(=O)Nc1ccc(-c2cnc(C3CCC(NC(=O)OC4CCCC4)CC3)s2)c(S(=O)(=O)NC(C)(C)C)c1 (stereo not shown) [Compound 7]
- pEC50 [1]: ≥ 6.00

Compound: CC(C)OC(=O)Nc1ccc(-c2cnc(C3CCC(NC(=O)OC[C@@H]4CCCN4C)CC3)s2)c(S(=O)(=O)NC(C)(C)C)c1 (stereo partly shown) [Compound 9]
- pEC50 [1]: ≥ 6.00

Compound: CN1CCC[C@@H]1COC(=O)NC1CCC(c2ncc(-c3ccc(NC(=O)NCc4ccccc4)cc3S(=O)(=O)NC(C)(C)C)s2)CC1 (stereo partly shown) [Compound 11]
- pEC50 [1]: ≥ 6.00

Compound: CN1CCC[C@H]1COC(=O)N[C@H]1CC[C@H](c2ncc(-c3ccc(NC(=O)NCc4ccccc4)cc3S(=O)(=O)NC(C)(C)C)s2)CC1 [Compound 12]
- pEC50 [1]: ≥ 6.00

Compound: CC(C)OC(=O)Nc1ccc(-c2cnc(C34CCC(NC(=O)OC(C)C)(CC3)CC4)s2)c(S(=O)(=O)NC(C)(C)C)c1 [Compound 17]
- pEC50 [1]: ≥ 6.00

- recovery at 90 min [3, 4]: 44.8%
- recovery at 90 min [3, 5]: 96.6%
- Papp A→B [3]: 9.4 ×10⁻⁶ cm/s
- Papp B→A [3]: 10.4 ×10⁻⁶ cm/s
- efflux ratio [3]: 1.1
Compound: CC(C)NC(=O)OC1CCC(c2ncc(-c3ccc(NC(=O)OC(C)C)cc3S(=O)(=O)NC(C)(C)C)s2)CC1 (stereo not shown) [Compound 20]
- pEC50 [1]: < 6.00

- recovery at 90 min [3, 4]: 58.6%
- recovery at 90 min [3, 5]: 78.3%
Compound: CC(C)NC(=O)OC1CCC(c2ncc(-c3ccc(NC(=O)NCc4ccccc4)cc3S(=O)(=O)NC(C)(C)C)s2)CC1 (stereo not shown) [Compound 21]
- pEC50 [1]: ≥ 7.00

- recovery at 90 min [3, 4]: 83.1%
- recovery at 90 min [3, 5]: 89%
- Papp A→B [3]: 1.1 ×10⁻⁶ cm/s
- Papp B→A [3]: 21 ×10⁻⁶ cm/s
- efflux ratio [3]: 18.7
Compound: CC(C)OC(=O)NC1CCC(c2ncc(-c3ccc(NC(=O)NCc4ccncc4)cc3S(=O)(=O)NC(C)(C)C)s2)CC1 (stereo not shown) [Compound 22]
- pEC50 [1]: ≥ 6.00

Compound: CC(C)OC(=O)NC1CCC(c2ncc(-c3ccc(NC(=O)NCc4ccc(F)cc4)cc3S(=O)(=O)NC(C)(C)C)s2)CC1 (stereo not shown) [Compound 23]
- pEC50 [1]: ≥ 7.00

Compound: CC(C)OC(=O)NC1CCC(c2ncc(-c3ccc(NC(=O)N[C@H](C)c4ccccc4)cc3S(=O)(=O)NC(C)(C)C)s2)CC1 (stereo partly shown) [Compound 24]
- pEC50 [1]: ≥ 7.00
- pEC50 ([2]; Homo sapiens): < 6.00

Compound: CC(C)OC(=O)NC1CCC(c2ncc(-c3ccc(NC(=O)NCc4cccnc4)cc3S(=O)(=O)NC(C)(C)C)s2)CC1 (stereo not shown) [Compound 25]
- pEC50 [1]: ≥ 7.00

Compound: CC(C)OC(=O)NC1CCC(c2ncc(-c3ccc(NC(=O)N[C@@H](C)c4ccccc4)cc3S(=O)(=O)NC(C)(C)C)s2)CC1 (stereo partly shown) [Compound 26]
- pEC50 [1]: ≥ 7.00
- pEC50 ([2]; Homo sapiens): < 6.00

- recovery at 90 min [3, 4]: 66.9%
- recovery at 90 min [3, 5]: 81%
Compound: CC(C)OC(=O)NC1CCC(c2ncc(-c3ccc(NC(=O)NCc4ccccc4F)cc3S(=O)(=O)NC(C)(C)C)s2)CC1 (stereo not shown) [Compound 28]
- pEC50 [1]: ≥ 7.00

Compound: CC(C)OC(=O)NC1CCC(c2ncc(-c3ccc(NC(=O)N[C@@H](C)c4ccccn4)cc3S(=O)(=O)NC(C)(C)C)s2)CC1 (stereo partly shown) [Compound 32]
- pEC50 [1]: ≥ 7.00
- pEC50 ([2]; Homo sapiens): < 6.00

Compound: CC(C)OC(=O)NC1CCC(c2ncc(-c3ccc(NC(=O)OCC4CCNCC4)cc3S(=O)(=O)NC(C)(C)C)s2)CC1 (stereo not shown) [Compound 33]
- pEC50 [1]: < 6.00

- recovery at 90 min [3, 4]: 98.2%
- recovery at 90 min [3, 5]: 96.8%
Compound: CC(C)OC(=O)NC1CCC(c2ncc(-c3ccc(NC(=O)OC[C@H]4CCCN4C)cc3S(=O)(=O)NC(C)(C)C)s2)CC1 (stereo partly shown) [Compound 34]
- pEC50 [1]: ≥ 6.00

- recovery at 90 min [3, 4]: 98.8%
- recovery at 90 min [3, 5]: 108%
Compound: CC(C)OC(=O)NC1CCC(c2ncc(-c3ccc(NC(=O)OC[C@@H]4CCCN4C)cc3S(=O)(=O)NC(C)(C)C)s2)CC1 (stereo partly shown) [Compound 35]
- pEC50 [1]: ≥ 6.00

Compound: CC(C)OC(=O)NC1CCC(c2ncc(-c3ccc(NC(=O)OC[C@H]4CCCN4)cc3S(=O)(=O)NC(C)(C)C)s2)CC1 (stereo partly shown) [Compound 36]
- pEC50 [1]: ≥ 6.00

Compound: CC(C)OC(=O)NC1CCC(c2ncc(-c3ccc(NC(=O)OC[C@@H]4CCCN4)cc3S(=O)(=O)NC(C)(C)C)s2)CC1 (stereo partly shown) [Compound 37]
- pEC50 [1]: ≥ 6.00

Compound: CC(C)OC(=O)NC1CCC(c2ncc(-c3ccc(NC(=O)O[C@@H](C)c4ccccc4)cc3S(=O)(=O)NC(C)(C)C)s2)CC1 (stereo partly shown) [Compound 41]
- pEC50 [2]: < 6.00

- recovery at 90 min [3, 4]: 36.2%
- recovery at 90 min [3, 5]: 69.4%
- Papp A→B [3]: 3.2 ×10⁻⁶ cm/s
- Papp B→A [3]: 4.2 ×10⁻⁶ cm/s
- efflux ratio [3]: 1.3
Compound: CC(C)OC(=O)Nc1ccc(-c2cnc(C3CCC(NC(=O)OC(C)(C)C)CC3)s2)c(S(=O)(=O)NC(C)(C)C)c1 (stereo not shown) [Compound 44]
- pEC50 [1]: < 6.00

- recovery at 90 min [3, 4]: 73.6%
- recovery at 90 min [3, 5]: 84.4%
- Papp A→B [3]: 7.6 ×10⁻⁶ cm/s
- Papp B→A [3]: 10.8 ×10⁻⁶ cm/s
- efflux ratio [3]: 1.4
Compound: CC(C)(C)NS(=O)(=O)c1cc(NC(=O)NCc2ccccn2)ccc1-c1cnc(C2CCC(NC(=O)OC(C)(C)C)CC2)s1 (stereo not shown) [Compound 45]
- pEC50 [1]: ≥ 7.00

Compound: CC(C)OC(=O)Nc1ccc(-c2cnc(C3CCC(NC(=O)OC4COC4)CC3)s2)c(S(=O)(=O)NC(C)(C)C)c1 (stereo not shown) [Compound 48]
- pEC50 [1]: ≥ 6.00

Compound: COc1cc(NC(=O)OC(C)C)cnc1-c1ncc(-c2ccc(NC(=O)OCC3CCNCC3)cc2S(=O)(=O)NC(C)(C)C)s1 [Compound 56]
- pEC50 [1]: ≥ 6.00

Compound: CC(C)OC(=O)Nc1ccc(-c2sc(C3CCC(NC(=O)OC(C)C)CC3)nc2F)c(S(=O)(=O)NC(C)(C)C)c1 (stereo not shown) [Compound 58]
- pEC50 [1]: ≥ 6.00

Compound: CC(C)OC(=O)N[C@@H]1CC[C@@H](c2ncc(-c3ccc(NC(=O)NCc4ccccc4)cc3S(=O)(=O)NC(C)(C)C)s2)OC1 [Compound 59A]
- pEC50 [1]: ≥ 6.00

Compound: CC(C)OC(=O)Nc1ccc(-c2cnc([C@H]3CC[C@H](NC(=O)OC(C)C)CO3)s2)c(S(=O)(=O)NC(C)(C)C)c1 [Compound 60B]
- pEC50 [1]: ≥ 6.00

Compound: CC(C)OC(=O)Nc1ccc(-c2cnc(C3CC(NC(=O)OC(C)C)C3)s2)c(S(=O)(=O)NC(C)(C)C)c1 (stereo not shown) [Compound 65]
- pEC50 [1]: ≥ 6.00

Compound: CC(C)OC(=O)N[C@H]1CC[C@@H](c2ncc(-c3ccc(NC(=O)NCc4ccccc4)cc3S(=O)(=O)NC(C)(C)C)s2)CC1 [Compound 66B]
- pEC50 [1]: ≥ 6.00

Compound: C=S(=O)(NC(C)(C)C)c1cc(NC(=O)NCc2ccccc2)ccc1-c1cnc(N2CCC(NC(=O)OC(C)C)CC2)s1 (stereo not shown) [Compound 68]
- pEC50 [1]: ≥ 6.00

From US11607404B2, “Combinations of RAD51 and PARP inhibitors” (Cyteir Therapeutics, Inc., priority 2019, dated 2023)
